In publication PMC3237348, “Chemical Genomics Profiling of Environmental Chemical Modulation of Human Nuclear Receptors” (Environmental Health Perspectives, 2011):

Experiments:
ERα = biological target: T1, ERα (Homo sapiens, UniProt P03372); assay: GAL-LBD beta-lactamase reporter qHTS, HEK […], […] nm ratio; assay type: cell-based
T1 construct: gene ESR1; GeneBLAzer bla HEK 293T reporter line (Invitrogen)
T1 sequence (P03372 311-547 limits assumed): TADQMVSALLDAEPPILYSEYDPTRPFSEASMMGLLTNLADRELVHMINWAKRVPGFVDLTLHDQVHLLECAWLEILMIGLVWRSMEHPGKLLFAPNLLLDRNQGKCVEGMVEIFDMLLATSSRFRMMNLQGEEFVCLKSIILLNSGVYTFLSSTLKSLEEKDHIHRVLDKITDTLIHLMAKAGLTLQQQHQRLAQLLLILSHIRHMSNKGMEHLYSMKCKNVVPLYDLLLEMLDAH

PPARδ [1] = biological target: T2, PPARδ (Homo sapiens, UniProt Q03181); assay: as above; assay type: cell-based
T2 construct: gene PPARD; GeneBLAzer bla HEK 293T reporter line (Invitrogen)
T2 sequence (Q03181 139-441 limits assumed): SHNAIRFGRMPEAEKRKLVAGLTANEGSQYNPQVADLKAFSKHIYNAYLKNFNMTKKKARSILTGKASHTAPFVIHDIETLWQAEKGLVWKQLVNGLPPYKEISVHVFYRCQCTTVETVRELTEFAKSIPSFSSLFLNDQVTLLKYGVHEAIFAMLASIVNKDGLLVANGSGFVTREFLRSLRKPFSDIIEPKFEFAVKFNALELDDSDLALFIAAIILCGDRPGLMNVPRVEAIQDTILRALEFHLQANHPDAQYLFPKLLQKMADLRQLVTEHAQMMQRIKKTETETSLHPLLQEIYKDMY

RXRα = biological target: T3, RXRα (Homo sapiens, UniProt P19793); assay: as above; assay type: cell-based
T3 construct: gene RXRA; GeneBLAzer bla HEK 293T reporter line (Invitrogen)
T3 sequence (P19793 225-462 limits assumed): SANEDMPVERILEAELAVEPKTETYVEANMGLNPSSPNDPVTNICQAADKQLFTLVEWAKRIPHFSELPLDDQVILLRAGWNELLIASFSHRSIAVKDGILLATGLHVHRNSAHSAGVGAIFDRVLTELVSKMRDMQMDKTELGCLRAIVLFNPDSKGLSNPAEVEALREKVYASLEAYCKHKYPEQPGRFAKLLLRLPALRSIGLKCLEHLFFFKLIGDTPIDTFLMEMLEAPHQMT

PPARγ [2] = biological target: T4, PPARγ (Homo sapiens, UniProt P37231); assay: as above; assay type: cell-based
T4 construct: gene PPARG; GeneBLAzer bla HEK 293T reporter line (Invitrogen)
T4 sequence (P37231 238-505 limits assumed): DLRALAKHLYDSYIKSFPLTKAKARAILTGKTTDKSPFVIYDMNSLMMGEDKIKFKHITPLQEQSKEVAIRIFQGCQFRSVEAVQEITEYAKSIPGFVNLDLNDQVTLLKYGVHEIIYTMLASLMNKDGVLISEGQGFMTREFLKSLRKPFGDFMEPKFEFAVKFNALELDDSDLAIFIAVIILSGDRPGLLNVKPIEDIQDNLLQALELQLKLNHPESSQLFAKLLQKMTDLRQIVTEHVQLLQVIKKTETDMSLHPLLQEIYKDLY

LXRβ = biological target: T5, LXRβ (Homo sapiens, UniProt P55055); assay: as above; assay type: cell-based; conditions: agonist mode; […]-18 h at […] °C; unreliable
T5 construct: gene NR1H2; GeneBLAzer bla HEK 293T reporter line (Invitrogen)
T5 sequence (P55055 222-460 limits assumed): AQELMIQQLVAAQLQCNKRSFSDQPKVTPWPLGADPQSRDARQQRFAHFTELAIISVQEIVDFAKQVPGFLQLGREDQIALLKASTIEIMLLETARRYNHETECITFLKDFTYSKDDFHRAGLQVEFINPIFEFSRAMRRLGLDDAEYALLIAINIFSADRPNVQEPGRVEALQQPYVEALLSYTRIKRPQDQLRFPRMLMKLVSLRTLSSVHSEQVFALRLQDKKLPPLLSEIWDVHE

PPARγ [3] = biological target: T4, PPARγ; assay: as above; assay type: cell-based; remark: listed apart in the source
PPARγ [4] = biological target: T4, PPARγ; assay: cell-based; set-up: species or system HEK 293T; GeneBLAzer GAL4-LBD beta-lactamase reporter, antagonist mode with added agonist, 460/530 nm FRET ratio; conditions: with rosiglitazone 0.05 uM; antagonist mode, known agonist added; read-out: Control Titration EC50/IC50 (µM), antagonist mode
Description: (§1) β-Lactamase reporter gene assay and qHTS. […] All cell culture reagents were obtained from Invitrogen.

PPARδ [5] = biological target: T2, PPARδ; assay: cell-based; set-up: species or system HEK 293T; GeneBLAzer GAL4-LBD beta-lactamase reporter, antagonist mode with added agonist, 460/530 nm FRET ratio; conditions: with L165041 0.5 uM; antagonist mode, known agonist added; read-out: Control Titration EC50/IC50 (µM), antagonist mode
Description: as §1

GR = biological target: T6, GR (Homo sapiens, UniProt P04150); assay: GAL-LBD beta-lactamase reporter qHTS, HEK […], […] nm ratio; assay type: cell-based
T6 construct: gene NR3C1; GeneBLAzer bla HEK 293T reporter line (Invitrogen)
T6 sequence (P04150 521-777 limits assumed): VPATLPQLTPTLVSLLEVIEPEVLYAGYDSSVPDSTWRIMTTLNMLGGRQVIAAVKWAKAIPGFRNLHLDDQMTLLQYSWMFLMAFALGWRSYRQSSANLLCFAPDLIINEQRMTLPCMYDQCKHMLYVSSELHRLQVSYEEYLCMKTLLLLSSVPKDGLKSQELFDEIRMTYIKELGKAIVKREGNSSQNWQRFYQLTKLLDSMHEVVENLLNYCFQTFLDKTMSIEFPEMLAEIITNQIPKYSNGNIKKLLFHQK

PPARδ [6] = biological target: T2, PPARδ; assay: cell-based; set-up: species or system HEK 293T; GeneBLAzer GAL4-LBD beta-lactamase reporter, agonist mode, 460/530 nm FRET ratio; conditions: agonist mode; read-out: Control Titration EC50/IC50 (µM), agonist mode
Description: as §1

CCCc1c(-c2ccc(O)cc2)nn(-c2ccc(O)cc2)c1-c1ccc(O)cc1 [1,3,5-tris(4-Hydroxyphenyl)-4-propyl-1H-pyrazole]
EC50 (ERα): 100 nM

CCCCCCCCCCCCCCC(Br)C(=O)O (centres unmarked) [2-Bromohexadecanoic acid]
EC50 (PPARδ [1]): 28200 nM

CC1(C)CCC(C)(C)c2cc(C(=O)Nc3ccc(C(=O)O)cc3)ccc21 [AM-580]
EC50 (RXRα): 620 nM

CC(C)(c1ccc(OCC2CO2)cc1)c1ccc(OCC2CO2)cc1 (centres unmarked) [BADGE]
IC50 (PPARγ [2]; antagonist mode, nonsaturating agonist pre-added, […]-18 h at […] °C): 50100 nM

CC(C)CCC[C@@H](C)[C@H]1CC[C@H]2[C@@H]3CC=C4C[C@@H](O)CC[C@]4(C)[C@H]3CC[C@]12C [Cholesterol]
EC50 (LXRβ): 39810 nM

CC(C)C[C@H](NC(=O)OCC1c2ccccc2-c2ccccc21)C(=O)O [Fmoc-l-leucine]
EC50 (PPARγ [3]): 11200 nM

O=C(Nc1ccccc1)c1cc([N+](=O)[O-])ccc1Cl [GW9662]
IC50 (PPARγ [2]): 12600 nM | IC50 (PPARγ [4]): 0.011 µM

CC(C)c1ccc2c(c1)c(SC(C)(C)C)c(CC(C)(C)C(=O)O)n2Cc1ccc(Cl)cc1 [MK886]
IC50 (PPARδ [5]): 54 µM

O=S(=O)(c1ccccc1)N(CC(F)(F)F)c1ccc(C(O)(C(F)(F)F)C(F)(F)F)cc1 [TO-901317]
EC50 (LXRβ): 250 nM

C/C(=C\c1ccc(C(=O)O)cc1)c1ccc2c(c1)C(C)(C)CCC2(C)C [TTNPB, (E)-4-[2-(5,6,7,8-tetrahydro-5,5,8,8-tetramethyl-2-naphthylenyl)-1-propenyl] benzoic acid]
EC50 (RXRα): 710 nM

C[C@]12C=CC(=O)C=C1CC[C@H]1[C@@H]3C[C@@H](O)[C@](O)(C(=O)CO)[C@@]3(C)C[C@H](O)[C@@]12F [Triamcinolone]
EC50 (GR): 110 nM

CCCc1c(OCCCOc2ccc(OCC(=O)O)cc2)ccc(C(C)=O)c1O [l-165,041]
EC50 (PPARδ [1]): 90 nM | EC50 (PPARδ [6]): 0.036 ± 0.006 µM
